Test system: TNF-α production in PBMCs from an AOSD patient
Test: TNF-α level in PBMCs harvested from an AOSD patient
Assay type: cell-based, human
Experimental: But there is a lack of appropriate rodent models because TLR8 is not functional in either mice or rats. Therefore, the TLR8 inhibitors of this disclosure were tested in human specimens harvested from patients with osteoarthritis (OA), rheumatoid arthritis (RA), and adult onset-Still's disease (AOSD). It is well established that TNF-α and IL-1β are key cytokines in the process of chronic joint inflammation in cartilage. Therefore, synovial cells were isolated from synovial tissue of patients who underwent joint replacement surgery due to severe OA. Previous studies have indicated these pathological tissues express both TLR7 and TLR8 with elevated production of various cytokines, contributing to extensive articular destruction and functional decline.

COc1ccc2c(-c3ccc(O)c(C)c3)ccnc2c1 [Compound 11a, 2-Methyl-4-(7-methoxyl-4-quinolinyl)-phenol]
TNF-α level in PBMCs from an AOSD patient: dose-dependent suppression
